Reference: patent US20230042881A1, “MODULATORS OF INTEGRATED STRESS RESPONSE PATHWAY” (Praxis Biotech LLC, priority 2021, published 2023)
pIC50: −log10 of the molar value. Like-named read-outs stand apart in the source and are kept apart here.

Assays:
ATF4 = ATF4 expression inhibition assay (ATF4 5′UTR luciferase reporter, thapsigargin-stressed); type: cell-based; conditions: Homo sapiens, HEK-293T, read-out: ATF4 inhibition
Method: The ATF4 reporter was prepared by fusing the human full length 5′UTR of ATF4 (NCBI Accession No. BC022088.2) upstream of the firefly luciferase coding sequence lacking the initiator methionine. The fused sequence was cloned into pLenti-EF1a-C-Myc-DDK-IRES-Puro cloning vector (Origen #PS100085) using standard methods.
HEK293T cells carrying the ATF4 luciferase reporter were plated on 96-well plates (Nunc) at 10,000 cells per well. Cells were treated two days after seeding with 100 nM thapsigargin (Tg) (Sigma-Aldrich #T9033) in the presence of different concentrations of selected compounds ranging from 0.1 nM to […]. Cells without treatment or cells treated with Tg alone were used as controls. Assay plates containing cells were incubated for 3 hours at 37° C.
Luciferase reactions were performed using Luciferase Assay System (Promega #E1501) as specified by the manufacturer. Luminescence was read with an integration time of 1 s and a gain of 110 using a Cytation-5 multi-mode microplate reader (BioTek).

[1] = system: Chinese hamster ovary (CHO) cells; test: Protein synthesis assay (puromycin incorporation, Western blot); type: cell-based; conditions: Cricetulus griseus, read-out: % Protein synthesis relative to untreated (1 μM test compound)
Method: Chinese hamster ovary (CHO) cells were maintained at 37° C. and 5% CO2 in Dulbecco's Modified Eagle's Media (DMEM) supplemented with 10% fetal bovine serum, 2 mM L-glutamine, 100 U/ml penicillin, and 100 μg/ml streptomycin. After reaching 80% of confluence, cells were detached and seeded on 6 well plates in complete media, allowed to recover overnight and treated for 2 hours with 1 μM of the test compound (to assess protein synthesis levels in unstressed condition), or for 2 hours with 300 nM Tg in the presence of 1 μM of the test compound (to assess the recovery of protein synthesis in a stressed condition). Cells with Tg alone were used as controls.
After the 2 hours treatments, media were replaced by adding 10 μg/ml puromycin (Sigma Aldrich #P8833) in complete media for 30 min. Media were removed and cells were lysed with SDS-PAGE lysis buffer. Lysates were transferred to 1.5 ml tubes and sonicated for 3 min and total protein amount were quantified using BCA Protein Assay Kit (Pierce). Equal amount of protein (30 μg) was loaded on SDS-PAGE gels.
A HRP-conjugated secondary antibody (Rockland) was employed to detect immune-reactive bands using enhanced chemiluminescence (ECL Western Blotting Substrate, Pierce). Quantification of protein bands was done by densitometry using ImageJ software.
The percentage levels were normalized to the media alone condition, which correspond to 100% protein synthesis. […]

[2] = HEK293T cells carrying ATF4 luciferase reporter, 100 nM thapsigargin (Tg), 3 hours at 37° C.
[3] = unstressed CHO cells (without Tg), 2 hours, 1 μM test compound, media alone = 100%

Compound	pIC50 (ATF4; [2])	pIC50 (ATF4; 3 h)	activity at 1 µM [1, 3] [%]	activity at 1 µM ([1]; CHO, 2 h) [%]
O=C(N[C@H]1CC[C@H](C(=O)NCC2CNc3cc(Cl)ccc3O2)CC1)C1CNc2cc(Cl)ccc2O1 (stereo partly drawn) [Compound 77, 6-chloro-N-(trans-4-(((6-chloro-3,4-dihydro-2H-benzo[b][1,4]oxazin-2-yl)methyl)carbamoyl)cyclohexyl)-3,4-dihydro-2H-benzo[b][1,4]oxazine-2-carboxamide]	7.00 to 8.00		76.6	
O=C(COc1ccc(Cl)c(F)c1)NN1CCC(C(=O)Nc2nc3cc(Cl)ccc3o2)CC1 [Compound 97, 1-(2-(4-chloro-3-fluorophenoxy)acetamido)-N-(5-chlorobenzo[d]oxazol-2-yl)piperidine-4-carboxamide]		7.00 to 8.00		71.5
O=C(N[C@H]1CC[C@H](C(=O)Nc2nc3cc(Cl)ccc3o2)CC1)c1ccc2cc(Cl)ccc2n1 [Compound 99, 6-chloro-N-(trans-4-((5-chlorobenzo[d]oxazol-2-yl)carbamoyl)cyclohexyl)quinoline-2-carboxamide]		7.00 to 8.00		84.8
O=C(CO[C@H]1C[C@@H](OC(F)(F)F)C1)N[C@H]1CC[C@H](C(=O)Nc2nc3cc(Cl)ccc3s2)CC1 [Compound 120, trans-N-(5-chlorobenzo[d]thaizol-2-yl)-4-(2-(cis-3-(trifluoromethoxy)cyclobutoxy)acetamido)cyclohexanecarboxamide]	7.00 to 8.00		122	

More lines, main results first:

pIC50 (ATF4; [2])	pIC50 (ATF4; 3 h)	Compound	activity at 1 µM [1, 3] [%]	activity at 1 µM ([1]; CHO, 2 h) [%]
	7.00 to 8.00	O=C(NN1CCC(C(=O)Nc2nc3cc(Cl)ccc3o2)CC1)c1ccc2cc(Cl)ccc2n1 [Compound 100, 6-chloro-N-(4-(5-chlorobenzo[d]oxazol-2-ylcarbamoyl)piperidin-1-yl)quinoline-2-carboxamide]		128
7.00 to 8.00		O=C(COc1ccc(Cl)c(F)c1)NN1CCC(C(=O)Nc2nc3cc(Cl)ccc3s2)CC1 [Compound 116, 1-(2-(4-chloro-3-fluorophenoxy)acetamido)-N-(5-chlorobenzo[d]thiazol-2-yl)piperidine-4-carboxamide]	116	
> 8.00		O=C(N[C@H]1CC[C@H](C(=O)Nc2nc3cc(Cl)ccc3s2)CC1)c1ccc2cc(Cl)ccc2n1 [Compound 118, 6-chloro-N-(trans-4-(5-chlorobenzo[d]thiazol-2-ylcarbamoyl)cyclohexyl)quinoline-2-carboxamide]	109	
> 8.00		O=C(NN1CCC(C(=O)Nc2nc3cc(Cl)ccc3s2)CC1)c1ccc2cc(Cl)ccc2n1 [Compound 119, 6-chloro-N-(4-(5-chlorobenzo[d]thiazol-2-ylcarbamoyl)piperidin-1-yl)quinoline-2-carboxamide]	118	
> 8.00		O=C(Nc1ccc2cc(Cl)ccc2n1)C1CCN(NC(=O)[C@H]2C[C@@H](O)c3cc(Cl)ccc3O2)CC1 [Compound 124, 1-((2R,4R)-6-chloro-4-hydroxychroman-2-carboxamido)-N-(6-chloroquinolin-2-yl)piperidine-4-carboxamide]	183	
